The structures appear in SMILES notation. “Also recorded” adds a separate entry of the source.

One test concerns DSS treated C57Bl/6 mice. Put plainly: Acute model of DSS induced murine colitis (gut barrier dysfunction). The test is classed as in vivo. The note with it: 3% DSS six days; for DSS induced weight loss / epithelial injury / pathology / histopathological healing (histopathological score): vs DSS+vehicle.
The subject of test [1] is IL-6-mediated activation of STAT3. Put plainly: HEK-Blue IL-6 reporter cell line, STAT3-responsive SEAP reporter. The test is classed as cell-based, human. The note with it: control Janus kinase inhibitor at 10 μM; IL-6 2 ng/mL, 24 hours. The protocol: STAT3 activity was assessed using the HEK Blue IL-6 cell line (Invivogen). Briefly, 50,000 cells per well were seeded in triplicate in a 96-well plate 24 hours prior to the start of the assay. Bacteria supernatant or sterile bacterial medium were added to the cells at a final concentration of 10% v/v for a 60-minute pretreatment. Then recombinant human IL 6 (R&D systems) was added at a final concentration of 2 ng/mL and the cells were incubated at 37° C. for 24 hours. The ability of the supernatants to suppress IL-6 mediated STAT3 activation was compared to the Janus kinase inhibitor tofacitinib (10 μM). After 24 hours, the STAT3 regulated SEAP reporter activity was assessed using Quanti Blue solution as recommended by the manufacturer (Invivogen). Results are the average of three independent experiments. Cytotoxicity was assessed using the CellTiter-Glo® 2.0 Cell Viability Assay (Promega, Australia) as recommended by the manufacturer.

In test [2] the test system is IL-23-mediated activation of STAT3. The experiment in a line: HEK-Blue IL-23 reporter cell line, STAT3 inducible SEAP reporter. Particulars: control Janus kinase inhibitor at 10 μM; rhIL-23 5 ng/mL, 6 hours. The test is classed as cell-based, human. The protocol:
Then, each seed culture broth was used to inoculate two technical replicates each generating six technical replicates from three biological replicates. The technical replicates were grown until early stationary phase and then cell free culture supernatant was harvested as previously described (Giri et al., 2019). Culture supernatants were size fractionated by passing through a 3 kDa CENTRICON® column according to the manufacturer's (Merck Millipore) instructions. To prepare A. shahii MH21-6 supernatant samples for assay, a seed culture was established from a single colony and grown until early stationary phase. Then, the seed culture broth was used to inoculate two technical replicates. […]
STAT3 activity was assessed using the HEK Blue IL-23 cell line (Invivogen). […] STAT3 regulated SEAP reporter activity was assessed using Quanti Blue solution as recommended by the manufacturer (Invivogen). […] Cytotoxicity was assessed using an MTT assay. […] Cytotoxicity was assessed by measuring absorbance at 540 nm as recommended by the manufacturer (Invitrogen, Thermo Fisher, Australia). […]
STAT3 activity was assessed using the HEK Blue IL-23 cell line (Invivogen). […] STAT3 regulated SEAP reporter activity was assessed using Quanti Blue solution as recommended by the manufacturer (Invivogen). […] Cytotoxicity was assessed using MTT assay. […]

[3] abbreviates: Example 3 (G. formicilis) study.

For `C[C@]12C=CC(=O)C=C1CC[C@@H]1[C@@H]2C(=O)C[C@@]2(C)[C@H]1CC[C@]2(O)C(=O)CO` [prednisone], the “DSS induced weight loss” value in the test on DSS treated C57Bl/6 mice (Example 1 (A. shahii) study, daily treatment) is “exacerbated the DSS induced weight loss”; with DSS treated C57Bl/6 mice (setting [3]), “exacerbated the DSS induced weight loss”. Moreover, in the test with DSS treated C57Bl/6 mice (Example 1 (A. shahii) study, relative to vehicle treated control), the goblet cells entry is recorded as “ameliorated”. Moreover, the epithelial injury entry in the test with DSS treated C57Bl/6 mice (Example 1 (A. shahii) study) is “ameliorated”; with DSS treated C57Bl/6 mice (Example 2 (C. sana) study), “Neither prednisone nor F. prausnitzii A2-165 had a significant impact”; in the test on DSS treated C57Bl/6 mice (setting [3]), “ameliorated”. Moreover, the “pathology / histopathological healing (histopathological score)” value with DSS treated C57Bl/6 mice (Example 1 (A. shahii) study) is on record as “significant improvement in disease pathology”; with DSS treated C57Bl/6 mice (Example 2 (C. sana) study) it was “Neither prednisone nor F. prausnitzii A2-165 had a significant impact”; in the test with DSS treated C57Bl/6 mice (setting [3]) it was “significant improvement in disease pathology”.

Take `C[C@@H]1CCN(C(=O)CC#N)C[C@@H]1N(C)c1ncnc2[nH]ccc12` [tofacitinib]: the “IL-6 mediated activation of STAT3” value in test [1] is recorded as “fully prevented”. The “IL-23 mediated activation of STAT3 (SEAP expression)” value in test [2] is “could be prevented; also recorded: inhibited IL-23 mediated SEAP expression”.

Source of the values: patent US20250268953A1, “COMPOSITIONS AND METHODS FOR TREATING DISEASE II” (MICROBA IP PTY LTD, priority 2021, published 2025).
